Source: PMC9448872 (Frontiers in Cell and Developmental Biology, 2022)

Assays:
[1] = test system: αvβ6 endocytosis in C76 cells; assay: Flow cytometry internalisation assay using TCEP reduction in C76 cells (inhibitors, siRNA); format: cell-based; design: internalisation of A20FMDV2 with Clathrin inhibitor: concentration or dose not given beside the values
[2] = test system: C76 cells; assay: Transwell migration assay; conditions: Transwells coated with 0.5 μg/ml LAP, 16 h, vehicle control 547 ± 128, p < 0.05
[3] = molecular target: T1, αvβ6 (Homo sapiens, UniProt P06756+P18564); conditions: cited from earlier work
T1 construct: endogenous in cells; host or cells: panel of breast, pancreas and lung cell lines (C76, C102, C139, H322M, H441, H358, MCF10A, MCF10CA1α, MDAMB468, BT20, HPDE, NHBE)

[4] = test system: C76 cells; assay: Cell viability by flow cytometry and DAPI uptake; format: cell-based; conditions: 500nM of TCEP, DAPI uptake, mean, n = 2 (95% without TCEP)
[5] = test system: FMDV; conditions: cited from earlier work

T1 sequence (P06756 31-889 limits assumed): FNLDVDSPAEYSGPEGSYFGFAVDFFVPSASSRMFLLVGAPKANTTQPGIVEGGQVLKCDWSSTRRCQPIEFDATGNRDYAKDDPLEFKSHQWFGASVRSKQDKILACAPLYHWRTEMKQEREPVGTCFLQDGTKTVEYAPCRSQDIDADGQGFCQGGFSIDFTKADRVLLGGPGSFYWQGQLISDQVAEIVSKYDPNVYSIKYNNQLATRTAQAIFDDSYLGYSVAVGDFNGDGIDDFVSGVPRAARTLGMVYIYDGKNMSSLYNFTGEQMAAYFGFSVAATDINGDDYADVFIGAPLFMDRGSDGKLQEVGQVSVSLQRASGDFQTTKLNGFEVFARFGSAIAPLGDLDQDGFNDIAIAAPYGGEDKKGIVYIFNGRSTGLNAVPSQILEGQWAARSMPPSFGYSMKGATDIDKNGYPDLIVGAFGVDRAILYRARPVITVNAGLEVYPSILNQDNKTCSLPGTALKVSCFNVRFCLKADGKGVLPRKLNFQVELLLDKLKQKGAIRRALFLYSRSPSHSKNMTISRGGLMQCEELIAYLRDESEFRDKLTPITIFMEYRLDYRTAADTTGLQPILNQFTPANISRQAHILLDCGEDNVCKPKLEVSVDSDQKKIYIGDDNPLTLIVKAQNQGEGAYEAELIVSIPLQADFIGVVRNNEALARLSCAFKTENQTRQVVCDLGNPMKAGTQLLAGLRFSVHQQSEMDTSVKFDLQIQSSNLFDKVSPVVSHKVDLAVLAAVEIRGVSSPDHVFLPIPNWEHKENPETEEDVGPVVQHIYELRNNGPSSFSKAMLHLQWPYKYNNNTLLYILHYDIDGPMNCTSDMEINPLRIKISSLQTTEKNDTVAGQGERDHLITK
T1 sequence (P06756 891-1048 limits assumed): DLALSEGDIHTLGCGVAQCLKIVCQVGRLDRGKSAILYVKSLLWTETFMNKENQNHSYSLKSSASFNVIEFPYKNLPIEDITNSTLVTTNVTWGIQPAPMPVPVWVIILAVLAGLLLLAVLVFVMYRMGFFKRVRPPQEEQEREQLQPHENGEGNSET
T1 sequence (P18564 22-788): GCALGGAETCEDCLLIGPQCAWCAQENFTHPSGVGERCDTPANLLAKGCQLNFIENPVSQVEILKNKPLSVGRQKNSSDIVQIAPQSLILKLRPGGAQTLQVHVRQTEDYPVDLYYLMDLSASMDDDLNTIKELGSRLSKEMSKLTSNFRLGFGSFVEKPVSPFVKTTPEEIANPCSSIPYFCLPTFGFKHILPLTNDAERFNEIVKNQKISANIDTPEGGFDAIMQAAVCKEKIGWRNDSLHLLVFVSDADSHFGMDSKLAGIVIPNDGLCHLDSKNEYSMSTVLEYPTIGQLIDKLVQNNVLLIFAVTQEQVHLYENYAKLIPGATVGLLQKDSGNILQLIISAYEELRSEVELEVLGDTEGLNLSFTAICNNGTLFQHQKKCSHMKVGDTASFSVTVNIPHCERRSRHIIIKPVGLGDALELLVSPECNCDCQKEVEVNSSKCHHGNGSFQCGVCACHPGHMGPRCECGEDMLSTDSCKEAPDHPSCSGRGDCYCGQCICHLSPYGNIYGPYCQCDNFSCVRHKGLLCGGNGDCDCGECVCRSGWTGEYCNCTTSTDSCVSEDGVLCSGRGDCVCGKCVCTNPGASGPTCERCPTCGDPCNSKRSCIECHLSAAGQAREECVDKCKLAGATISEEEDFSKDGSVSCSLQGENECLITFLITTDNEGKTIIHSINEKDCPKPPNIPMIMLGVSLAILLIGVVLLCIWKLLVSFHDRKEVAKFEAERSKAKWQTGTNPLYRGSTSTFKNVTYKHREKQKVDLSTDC

CN(C)CCCN1c2ccccc2Sc2ccc(Cl)cc21 [Chlorpromazine]
internalisation of αvβ6-bound Cy5-SS-(GS)5-bioA20FMDV2 with clathrin inhibitor ([1]; C76 cells pre-treated with 2 ug/ml Chlorpromazine, 20 min, n = 3, p < 0.05): 39 ± 2.5% | internalisation of A20FMDV2 with Clathrin inhibitor ([1]; C76 cells, ARFGAP siRNA knockdown + clathrin inhibitor, n = 3): 6.2 ± 3.5% | internalisation of A20FMDV2 with Clathrin inhibitor ([1]; C76 cells, ASAP siRNA knockdown + clathrin inhibitor, n = 3): 9.4 ± 9.9% | internalisation of A20FMDV2 with Clathrin inhibitor ([1]; C76 cells, CBL siRNA knockdown + clathrin inhibitor, n = 3): 14 ± 8% | internalisation of A20FMDV2 with Clathrin inhibitor ([1]; C76 cells, CBLB siRNA knockdown + clathrin inhibitor, n = 3): 7.4 ± 3.9% | internalisation of A20FMDV2 with Clathrin inhibitor ([1]; C76 cells, CYTH2 siRNA knockdown + clathrin inhibitor, n = 3): 13 ± 11.7% | internalisation of A20FMDV2 with Clathrin inhibitor ([1]; C76 cells, non-targeting (NT) siRNA + chlorpromazine, n = 3, not significant): 14 ± 6.5% | number of cells migrating towards LAP [2]: 225 ± 73

CCCCC[C@@H](O)[C@H]1C(=O)O[C@H](C)[C@@H](O)/C=C/C=C/C=C/C=C/C=C(\C)[C@@H](O)C[C@H](O)C[C@H](O)C[C@H](O)C[C@H](O)C[C@H](O)C[C@@H]1O [Filipin]
internalisation of αvβ6-bound Cy5-SS-(GS)5-bioA20FMDV2 with caveolin inhibitor ([1]; C76 cells pre-treated with 10 ug/ml Filipin, n = 3, p < 0.05): 19.7 ± 3.9% | reduction in the number of cells with internalised αVβ6-A20FMDV2 ([1]; C76 cells, caveolin inhibited (Filipin)): 41% | reduction in αvβ6 internalisation with caveolin inhibitor [3]: not statistically significant | number of cells migrating towards LAP [2]: 280 ± 51

O=C(O)CCP(CCC(=O)O)CCC(=O)O [TCEP, tris(2-carboxyethyl)phosphine]
cells viable [4]: 68%

OC[C@H]1O[C@@](CO)(O[C@H]2O[C@H](CO)[C@@H](O)[C@H](O)[C@H]2O)[C@@H](O)[C@@H]1O [sucrose]
reduction of αvβ6 dependent FMDV infection [5]: 95%
